Values joined by “and” are separate entries in the source; they are usually repeats but may differ in a detail not shown here. Identical values can stand only once.
System: 565232-114-T-J1-PDC complex spheroid viability
Experiment: Anticancer human tumor 565232-114-T-J1-PDC patient-derived bladder carcinoma cell line growth inhibition [CLK]
Conditions: for viability, T/C: stronger effect = lower value
Summary of the method: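 Patient-derived tumor cells grown as complex spheroids with HUVEC endothelial cells and mesenchymal stem cells, treated with drug combinations. Concentrations descend in half-log steps from near clinical Cmax, or from 10 microM if Cmax unknown.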

[1] = curve of first compound, second compound 0.0316 µM
[2] = curve of first compound, second compound 0.1 µM
[3] = curve of first compound, second compound 0.316 µM
[4] = curve of first compound, second compound 1 µM
[5] = curve of first compound, second compound 3.16 µM
[6] = curve of first compound, second compound 10 µM
[7] = second compound 0.0316 µM, first compound 0.0316 µM
[8] = second compound 0.0316 µM, first compound 0.1 µM
[9] = second compound 0.0316 µM, first compound 0.316 µM
[10] = second compound 0.0316 µM, first compound 1 µM
[11] = second compound 0.0316 µM, first compound 3.16 µM
[12] = second compound 0.0316 µM, first compound 10 µM
[13] = second compound 0.1 µM, first compound 0.0316 µM
[14] = second compound 0.1 µM, first compound 0.1 µM
[15] = second compound 0.1 µM, first compound 0.316 µM
[16] = second compound 0.1 µM, first compound 1 µM
[17] = second compound 0.1 µM, first compound 3.16 µM
[18] = second compound 0.1 µM, first compound 10 µM
[19] = second compound 0.316 µM, first compound 0.0316 µM
[20] = second compound 0.316 µM, first compound 0.1 µM
[21] = second compound 0.316 µM, first compound 0.316 µM
[22] = second compound 0.316 µM, first compound 1 µM
[23] = second compound 0.316 µM, first compound 3.16 µM
[24] = second compound 0.316 µM, first compound 10 µM
[25] = second compound 1 µM, first compound 0.0316 µM
[26] = second compound 1 µM, first compound 0.1 µM
[27] = second compound 1 µM, first compound 0.316 µM
[28] = second compound 1 µM, first compound 1 µM
[29] = second compound 1 µM, first compound 3.16 µM
[30] = second compound 1 µM, first compound 10 µM
[31] = second compound 3.16 µM, first compound 0.0316 µM
[32] = second compound 3.16 µM, first compound 0.1 µM
[33] = second compound 3.16 µM, first compound 0.316 µM
[34] = second compound 3.16 µM, first compound 1 µM
[35] = second compound 3.16 µM, first compound 3.16 µM
[36] = second compound 3.16 µM, first compound 10 µM
[37] = second compound 10 µM, first compound 0.0316 µM
[38] = second compound 10 µM, first compound 0.1 µM
[39] = second compound 10 µM, first compound 0.316 µM
[40] = second compound 10 µM, first compound 1 µM
[41] = second compound 10 µM, first compound 3.16 µM
[42] = second compound 10 µM, first compound 10 µM
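Note: spheroids exposed to compounds for 7 days before readout.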
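Throughout, for viability, T/C: 100% = DMSO vehicle wells with luminescence normalized to vehicle control.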

## CCCS(=O)(=O)Nc1ccc(F)c(C(=O)c2c[nH]c3ncc(-c4ccc(Cl)cc4)cc23)c1F + CNC(=O)c1ccc(Nc2nc(OC3CCCC3)c3c(-c4ccc5nc(C)oc5c4)c[nH]c3n2)c(OC)c1
[1]
  IC50: 5980 nM
[2]
  IC50: 455 nM
[3]
  IC50: < 31.6 nM
[4]
  IC50: < 31.6 nM
[5]
  IC50: < 31.6 nM
[6]
  IC50: < 31.6 nM
[7]
  viability, T/C: 95.7%
[8]
  viability, T/C: 75.2%
[9]
  viability, T/C: 75.3%
[10]
  viability, T/C: 96.2%
[11]
  viability, T/C: 110%
[12]
  viability, T/C: 17.2%
[13]
  viability, T/C: 56.5%
[14]
  viability, T/C: 56.1%
[15]
  viability, T/C: 50.7%
[16]
  viability, T/C: 46.6%
[17]
  viability, T/C: 30.8%
[18]
  viability, T/C: 9.67%
[19]
  viability, T/C: 36.1%
[20]
  viability, T/C: 35.9%
[21]
  viability, T/C: 32.9%
[22]
  viability, T/C: 32.5%
[23]
  viability, T/C: 26.3%
[24]
  viability, T/C: 6.44%
[25]
  viability, T/C: 23.7%
[26]
  viability, T/C: 27.2%
[27]
  viability, T/C: 26.4%
[28]
  viability, T/C: 23.1%
[29]
  viability, T/C: 16.4%
[30]
  viability, T/C: 5.45%
[31]
  viability, T/C: 19.1%
[32]
  viability, T/C: 20.5%
[33]
  viability, T/C: 18.4%
[34]
  viability, T/C: 18.8%
[35]
  viability, T/C: 18.9%
[36]
  viability, T/C: 4.02%
[37]
  viability, T/C: 20.4%
[38]
  viability, T/C: 17.8%
[39]
  viability, T/C: 18.1%
[40]
  viability, T/C: 17.2%
[41]
  viability, T/C: 11.6%
[42]
  viability, T/C: 3.9%

## CC(C)CC(NC(=O)C(Cc1ccccc1)NC(=O)c1cnccn1)B(O)O (stereo not given)
Compound 0.000949 µM
  viability, T/C: 97.2% and 89.6%
Compound 0.003 µM
  viability, T/C: 85.3% and 89.2%
Compound 0.00949 µM
  viability, T/C: 10.3% and 1.88%
Compound 0.03 µM
  viability, T/C: 4.99% and 0.69%
Compound 0.0949 µM
  viability, T/C: 2.74% and 2.59%
Compound 0.3 µM
  viability, T/C: 1.61% and 0.54%
Curve of compound
  IC50: 5.16 nM and 5.03 nM

## COc1ccc([C@@H](O)c2cc(-c3ncnc4cc(N5CCOCC5)ccc34)c(F)cc2Cl)nn1 + CNC(=O)c1ccc(Nc2nc(OC3CCCC3)c3c(-c4ccc5nc(C)oc5c4)c[nH]c3n2)c(OC)c1
[1]
  IC50: > 10000 nM
[2]
  IC50: < 31.6 nM
[3]
  IC50: < 31.6 nM
[4]
  IC50: < 31.6 nM
[5]
  IC50: < 31.6 nM
[6]
  IC50: < 31.6 nM
[7]
  viability, T/C: 87.3%
[8]
  viability, T/C: 87.1%
[9]
  viability, T/C: 98.5%
[10]
  viability, T/C: 113%
[11]
  viability, T/C: 115%
[12]
  viability, T/C: 88.6%
[13]
  viability, T/C: 47%
[14]
  viability, T/C: 41.6%
[15]
  viability, T/C: 36.9%
[16]
  viability, T/C: 34.3%
[17]
  viability, T/C: 34.6%
[18]
  viability, T/C: 35.8%
[19]
  viability, T/C: 26.4%
[20]
  viability, T/C: 29.9%
[21]
  viability, T/C: 27.9%
[22]
  viability, T/C: 32%
[23]
  viability, T/C: 24.5%
[24]
  viability, T/C: 24.8%
[25]
  viability, T/C: 23.8%
[26]
  viability, T/C: 22.1%
[27]
  viability, T/C: 19.9%
[28]
  viability, T/C: 22.1%
[29]
  viability, T/C: 23%
[30]
  viability, T/C: 19.2%
[31]
  viability, T/C: 15.7%
[32]
  viability, T/C: 19.6%
[33]
  viability, T/C: 17.4%
[34]
  viability, T/C: 14.5%
[35]
  viability, T/C: 14.9%
[36]
  viability, T/C: 13.6%
[37]
  viability, T/C: 19%
[38]
  viability, T/C: 17.1%
[39]
  viability, T/C: 14.4%
[40]
  viability, T/C: 15.9%
[41]
  viability, T/C: 15.2%
[42]
  viability, T/C: 15.8%

## O=C(c1cc(Cc2n[nH]c(=O)c3ccccc23)ccc1F)N1CCN(C(=O)C2CC2)CC1
Compound 0.0316 µM
  viability, T/C: 128% and 92%
Compound 0.1 µM
  viability, T/C: 96.3% and 94.3%
Compound 0.316 µM
  viability, T/C: 113% and 94.3%
Compound 1 µM
  viability, T/C: 90.7% and 83.8%
Compound 3.16 µM
  viability, T/C: 95% and 117%
Compound 10 µM
  viability, T/C: 122% and 58.1%
Curve of compound
  IC50: > 10000 nM

## CC(=O)O[C@H]1C(=O)[C@@]2(C)[C@H]([C@H](OC(=O)c3ccccc3)[C@]3(O)C[C@H](OC(=O)[C@H](O)[C@@H](NC(=O)c4ccccc4)c4ccccc4)C(C)=C1C3(C)C)[C@]1(OC(C)=O)CO[C@@H]1C[C@@H]2O
Compound 0.0316 µM
  viability, T/C: 39.2% and 16.7%
Compound 0.1 µM
  viability, T/C: 20.1% and 11.8%
Compound 0.316 µM
  viability, T/C: 19.2% and 10.8%
Compound 1 µM
  viability, T/C: 15.5% and 6.12%
Compound 3.16 µM
  viability, T/C: 20% and 10.1%
Compound 10 µM
  viability, T/C: 23.2% and 10.5%
Curve of compound
  IC50: < 31.6 nM

Source: PubChem BioAssay AID2060612 (Molecular Pharmacology Branch, DTP, NCI, 2025)
